Assay results as given in patent publication US20110152218A1, “CRYSTALLINE PHOSPHOLIPID, METHOD FOR ITS PRODUCTION AND USE IN TREATING DAMAGED TISSUE” (priority 2008, published 2011).

Assays:
[1] = test system: human peritoneal mesothelial cell (HPMC); assay: HPMC proliferation, Alamar Blue and MTT assay; assay type: cell-based; conditions: 48 hours and 72 hours; over the tested concentrations in supplemented M199
Protocol: The effect of a phospholipid prepared as described in Example 1 (and/or its constituent compounds) to induce human peritoneal mesothelial cell proliferation was assessed using an Alamar Blue™ assay and an MTT assay.
The Alamar Blue™ assay is designed to measure the proliferation of various cell types by measuring the ability of the cells to metabolise and reduce a REDOX indicator (Alamar Blue™). Reduction of the REDOX indicator results in a change in its fluorescent activity. Therefore the fluorescent activity measured is proportional to cell proliferation.
The MTT Assay measures the proliferations of various cells and is based on the mitochondrial conversion of tetrazolium salt 3-[4,5-dimethyl-thiazol-2-yl]-2,5-diphenyltetrazium bromide (MTT), into an insoluble formazan salt. The resultant colour change is directly related to the number of viable cells.
As described in Morgan L W et al (“Glucose degradation products (GDP) retard re-mesothelialisation independently of D-glucose concentration.” Kidney Int 64:1854-1866, 2003), primary HPMC are isolated from omental tissue biopsies donated by consenting patients undergoing elective abdominal surgery. Cells were grown to approximately 60% confluence in 96 well plates (Falcon) and used at passage 2. All cells were growth arrested in serum free M199 for 24 hours prior to use.
The supplemented M199 medium was prepared as follows. Earle's salt medium M199 was supplemented with 100μ/ml penicillin, 100 μg/ml streptomycin, 2 mM glutamine, 5 μg/ml insulin, 5 μg/ml transferrin and 0.4 μg/ml hydrocortisone and 2 mmol/L N-2-hydroxyethylpiperazine-N′-2ethanesulfonic acid.
The phospholipid prepared as described in Example 1 was prepared as follows. […]
The growth medium was aspirated from each well and then the well was washed once using 200 μl per well of supplemented M199. […] The fluorescent activity of Alamar Blue™ at 540 nm (wavelength) was measured using a Dynex Revalation 96-multiwell plate reader. […]

HPMC [2] = assay: HPMC ATP bioluminescence assay; assay type: cell-based, human; conditions: 72 hours; single well; over the tested concentrations
Protocol: The viability of HPMC after stimulation with FCS, phospholipid prepared according to Example 1 (Vibrated and Non-vibrated), lysophosphatidic acid (LPA), DPPC, DPPC/LPA, POPC, Curosurf, egg-PG (EPG) and the three Intralipid™ products was determined using an ATP assay. This assay measures the light emitted during the ATP dependant oxidation of luciferin in order to accurately quantify the ATP concentration.
As described in Example 3, primary HPMC are isolated from omental tissue biopsies donated by consenting patients undergoing elective abdominal surgery. Cells are grown to approximately 60% confluence in 96 well plates (Falcon) and used at passage 2. All cells are growth arrested in serum free M199 for 24 hours prior to use.
An ATP Bioluminescence Assay Kit CLS II (Roche Diagnostics, Cat No 1 699 695, 11857300) was used. It contains ATP Standard, Luciferase and distilled water. A 10 mM EDTA solution was prepared by dissolving 1.8612 g EDTA (Fischer Scientific, Code D/0650/60, Batch 0447430, Mr-372.24) in 500 ml H2O (or 3.7224 g in 1 litre). A BAC-extract solution was prepared by dissolving 1 g Benzalkonium Chloride (Sigma-Aldrich, Cat:-23, 442-7, Lot S22104-334) in 1 litre of 10 mM EDTA. […]
To mix, rotate the bottle carefully. • 2) Make up an ATP standard solution having a base concentration of 1.65 μM ATP. […] Use distilled water as the control. • 4) Set the Fluostar Optima plate reader to measure luminescence. Set the Fluostar Optima plate reader pump to inject 20 μl of luciferase into each of the required wells. • 5) Place the plate into the plate reader and measure the relative light units (RLU). • 6) Prepare a standard curve such as that shown in FIG. 16 by plotting a graph of RLU against ATP concentration.
96 well plates from the HPMC proliferation study were defrosted. […] The ATP concentrations were calculated from the RLU of the samples using the standard curve. As an alternative to using an ATP standard curve, data can be normalised to the un-stimulated control and expressed as “ATP (% of control)”.

HPMC [3] = assay: Alamar Blue assay of HPMC proliferation in various tested media; assay type: cell-based, human; conditions: 50/50 v/v Hartmanns solution and supplemented M199; 48 hours; single well
Protocol: The suitability of various media for use in forming a dispersion of phospholipid prepared as described in Example 1 or of DPPC was investigated. The Alamar Blue™ assay of HPMC proliferation described in Example 3 was repeated using a single well of cells for each stimulation with a positive control of FCS dispersed in the tested medium, a negative control of the tested medium, and a phospholipid dispersed in the tested medium. The results obtained after 48 hours are shown in FIGS. 13A-13J and discussed below.

## CCCCCCCCCCCCCCCC(=O)OC[C@H](COP(=O)([O-])OCC[N+](C)(C)C)OC(=O)CCCCCCCCCCCCCCC [DPPC, Dipalmitoyl phosphatidyl choline]
[1]
  HPMC proliferation compared to the negative control: no significant stimulation of HPMC proliferation
HPMC [2]
  HPMC proliferation by ATP assay (ATP % of control) compared to the negative control: no increase of HPMC proliferation
HPMC [3]
  HPMC proliferation response in the first tested medium: not as great as DPPC in supplemented M199 by itself
